pIC50: −log10 of the molar value. Where a SMILES comes first, the peptide text is derived from it. [ ]: non-standard residue; d: D form. Hyp = O=C(O)[C@@H]1C[C@@H](O)CN1
Experiments:
BALB/c mice [1] = assay: 90-day oral safety: organ coefficients; format: in vivo; settings: 50 mg/kg/day oral, 90 days; liver, kidneys, spleen, lungs, heart
Method: (§1) A total of 40 healthy 7-week-old BALB/c mice (20 males and 20 non-pregnant females), with body weights within ±15% of the cohort mean, were obtained from Yangzhou University. All animals underwent a 7-day acclimation period under specific pathogen-free conditions prior to the experiment. Mice were housed under standard laboratory conditions: ambient temperature of 20–26 °C, relative humidity of 40–70%, and a 12 h light/dark cycle. General appearance, behavior, food intake, and body weight were monitored daily throughout the study. To evaluate the potential subchronic toxicity of the synthetic GA-Hyp-GAR peptide, a 90-day oral administration study was conducted. Mice were randomly divided into two groups (n = 10 males and 10 females per group): a normal group and a GA-Hyp-GAR-treated group receiving 50 mg/kg/day via daily intragastric gavage. The normal group received an equivalent volume of ultrapure water via the same route. After 90 consecutive days of treatment, all animals were anesthetized and euthanized 24 h after the final dose. […] Organ coefficients (organ weight/body weight × 100%) were calculated to assess potential physiological or pathological effects associated with long-term GA-Hyp-GAR exposure. […]

[2] = target: T1, ACE (from rabbit lung, EC 3.4.15.1) (Oryctolagus cuniculus, UniProt P12822); assay: ACE-inhibitory activity assay (FAPGG substrate, spectrophotometric); format: biochemical; settings: synthetic peptides; FAPGG 1 mmol/L, 80 mM HEPES, 0.3 M NaCl, pH 8.3, 37 °C; triplicate, sigmoidal dose–response fit; read-out: IC₅₀ ACE inhibition
T1 construct: ACE (from rabbit lung, EC 3.4.15.1); purchased Sigma-Aldrich Co. (St. Louis, MO, USA); host or cells: rabbit lung tissue
T1 sequence (P12822 34-1310): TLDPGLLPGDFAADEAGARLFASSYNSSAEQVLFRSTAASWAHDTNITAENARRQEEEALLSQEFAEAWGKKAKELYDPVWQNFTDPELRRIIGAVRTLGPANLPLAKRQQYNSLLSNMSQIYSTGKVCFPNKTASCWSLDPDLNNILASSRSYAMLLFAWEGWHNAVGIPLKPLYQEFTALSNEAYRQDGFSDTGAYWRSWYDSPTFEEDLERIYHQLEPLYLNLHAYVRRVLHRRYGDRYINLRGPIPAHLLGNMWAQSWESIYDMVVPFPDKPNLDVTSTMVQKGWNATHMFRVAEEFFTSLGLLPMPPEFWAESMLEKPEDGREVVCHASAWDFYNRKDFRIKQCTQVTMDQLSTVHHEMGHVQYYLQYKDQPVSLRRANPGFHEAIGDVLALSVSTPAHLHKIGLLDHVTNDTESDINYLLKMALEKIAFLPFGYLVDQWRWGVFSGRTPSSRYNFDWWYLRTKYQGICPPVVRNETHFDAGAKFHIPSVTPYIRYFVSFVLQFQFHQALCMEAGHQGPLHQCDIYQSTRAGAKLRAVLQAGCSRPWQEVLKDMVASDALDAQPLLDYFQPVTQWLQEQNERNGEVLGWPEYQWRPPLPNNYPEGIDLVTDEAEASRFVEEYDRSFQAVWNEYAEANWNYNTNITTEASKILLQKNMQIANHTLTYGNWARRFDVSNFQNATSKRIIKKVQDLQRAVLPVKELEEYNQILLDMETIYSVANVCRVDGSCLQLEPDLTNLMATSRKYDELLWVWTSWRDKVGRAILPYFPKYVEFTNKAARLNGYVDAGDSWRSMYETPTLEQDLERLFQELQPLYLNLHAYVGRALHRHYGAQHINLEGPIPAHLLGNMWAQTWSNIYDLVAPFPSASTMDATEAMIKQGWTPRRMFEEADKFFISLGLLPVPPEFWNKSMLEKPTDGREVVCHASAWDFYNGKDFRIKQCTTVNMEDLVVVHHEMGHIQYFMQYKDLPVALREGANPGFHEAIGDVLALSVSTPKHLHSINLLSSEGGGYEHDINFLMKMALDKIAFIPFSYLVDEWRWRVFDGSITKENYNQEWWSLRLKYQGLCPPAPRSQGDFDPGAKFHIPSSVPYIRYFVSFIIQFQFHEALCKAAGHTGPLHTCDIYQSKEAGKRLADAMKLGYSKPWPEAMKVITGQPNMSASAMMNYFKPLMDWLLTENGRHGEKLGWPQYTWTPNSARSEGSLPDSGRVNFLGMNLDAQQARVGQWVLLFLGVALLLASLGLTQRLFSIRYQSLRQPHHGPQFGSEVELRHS
Method: All other chemicals were of analytical grade.
All assays were conducted in triplicate.

BALB/c mice [3] = assay: 90-day oral safety: serum biochemical parameters; format: in vivo; settings: 50 mg/kg/day oral, 90 days
Method: (§2) A total of 40 healthy 7-week-old BALB/c mice (20 males and 20 non-pregnant females), with body weights within ±15% of the cohort mean, were obtained from Yangzhou University. All animals underwent a 7-day acclimation period under specific pathogen-free conditions prior to the experiment. Mice were housed under standard laboratory conditions: ambient temperature of 20–26 °C, relative humidity of 40–70%, and a 12 h light/dark cycle. General appearance, behavior, food intake, and body weight were monitored daily throughout the study. To evaluate the potential subchronic toxicity of the synthetic GA-Hyp-GAR peptide, a 90-day oral administration study was conducted. Mice were randomly divided into two groups (n = 10 males and 10 females per group): a normal group and a GA-Hyp-GAR-treated group receiving 50 mg/kg/day via daily intragastric gavage. The normal group received an equivalent volume of ultrapure water via the same route. After 90 consecutive days of treatment, all animals were anesthetized and euthanized 24 h after the final dose. Blood samples were collected via cardiac puncture for hematological and serum biochemical analyses, performed using a Hitachi 3500 fully automated biochemical analyzer (Hitachi High-Tech Science Corp., Tokyo, Japan). Major organs—including the heart, liver, spleen, lungs, and kidneys—were excised, blotted dry, and weighed. Organ coefficients (organ weight/body weight × 100%) were calculated to assess potential physiological or pathological effects associated with long-term GA-Hyp-GAR exposure. Tissues were fixed in 4% paraformaldehyde, embedded in paraffin, sectioned, and stained with hematoxylin and eosin for histopathological evaluation. All animal experiments were conducted in accordance with the ethical guidelines of the Animal Ethics Committee of Nanjing Agricultural University, which approved the study protocol (Protocol No. NJAU-20250120-35).

BALB/c mice [4] = assay: 90-day oral safety: mortality, clinical signs, body weight; format: in vivo; settings: 50 mg/kg/day oral, 90 days, male and female
Method: as §1

BALB/c mice [5] = assay: 90-day oral safety: histopathology (H&E); format: in vivo; settings: 50 mg/kg/day oral, 90 days, liver, kidneys, spleen, lungs, heart
Method: as §1

BALB/c mice [6] = assay: 90-day oral safety: hematological parameters; format: in vivo; design: Red Cell Distribution Width—CV: unit not given here; settings: 50 mg/kg/day oral, 90 days
Method: as §2

[7] = test system: endothelial nitric oxide synthase (eNOS); assay: Endothelial nitric oxide synthase level in SHRs (ELISA); format: in vivo, spontaneously hypertensive rats (SHRs); settings: oral, vs model group
Source text: (§3) Formic acid (≥99%, LC-MS grade), 4-(2-hydroxyethyl) piperazine-1-ethanesulfonic acid (HEPES, ≥99%, ACS grade), ACE (from rabbit lung, EC 3.4.15.1), acetonitrile (ACN, ≥99%, LC-MS grade), and N-[3-(2-Furyl) acryloyl]-Phe-Gly-Gly (FAPGG, ≥99%, ACS grade) were obtained from Sigma-Aldrich Co. (St. Louis, MO, USA). An enzyme-linked immunosorbent assay (ELISA) kit for AngII (catalog no. D731188-0048) was purchased from Sangon Biotech (Shanghai, China). ELISA kits for endothelial nitric oxide synthase (eNOS, catalog no. JL21190-48T) and BK (catalog no. JL21045-48T) were obtained from JONLN Biotechnology Co., Ltd. (Shanghai, China). Nitric Oxide (NO) assay kit (catalog no. A013-2-1) was purchased from Nanjing Jiancheng Bioengineering Institute (Nanjing, Jiangsu, China). All other chemicals were of analytical grade. […]
(§4) Systolic blood pressure (SBP) was measured using a non-invasive blood pressure monitoring system (BP-2000, Softron Co., Tokyo, Japan) at baseline (0 h) and at 2, 4, 6, 8, and 12 h after administration to evaluate the antihypertensive effects of the test peptides, following the method described by Kurita. The levels of AngII, eNOS, and BK were measured using commercial ELISA kits, while NO levels were determined using the Microwell plate method with a specialized assay kit.

angiotensin II = assay: Angiotensin II level in SHRs (ELISA); format: in vivo, spontaneously hypertensive rats (SHRs); settings: captopril 12 mg/kg oral, n = 6
Source text: as §3, §4

nitric oxide (NO) = assay: Nitric oxide level in SHRs (assay kit); format: in vivo, spontaneously hypertensive rats (SHRs); settings: oral, vs model group
Source text: as §3, §4

## C[C@H](NC(=O)CNC(=O)[C@@H]1C[C@@H](O)CN1C(=O)[C@H](C)NC(=O)CN)C(=O)N[C@@H](CCCNC(=N)N)C(=O)O [GA-Hyp-GAR, Gly-Ala-hydroxyproline-Gly-Ala-Arg] (H-GA[Hyp]GAR-OH)
BALB/c mice [1]
  organ coefficients: organ coefficients did not differ significantly between the GA-Hyp-GAR-treated and normal groups (p > 0.05)
[2]
  pIC50: 5.40
BALB/c mice [3]; vs normal group
  serum biochemical markers of hepatic and renal function in words: no significant differences (p > 0.05) between the treated and normal groups in markers of hepatic function
BALB/c mice [3]; normal 1.94 ± 0.40, p 0.0526
  Triglycerides: 2.35 ± 0.48 mmol/L
BALB/c mice [3]; normal 2.47 ± 0.23, p 0.1796
  Total Cholesterol: 2.32 ± 0.25 mmol/L
BALB/c mice [3]; normal 2.48 ± 1.03, p 0.9294
  Aspartate Aminotransferase: 2.44 ± 0.96 µkat/L
BALB/c mice [3]; normal 3.32 ± 0.65, p 0.2065
  Alkaline Phosphatase: 2.99 ± 0.46 µkat/L
BALB/c mice [3]; normal 5.69 ± 3.38, p 0.1654
  Glucose: 7.79 ± 3.11 mmol/L
BALB/c mice [3]; normal 7.81 ± 1.53, p 0.6237
  Blood Urea Nitrogen: 8.13 ± 1.33 mmol/L
BALB/c mice [3]; normal 14.70 ± 5.80, p 0.2390
  Creatinine: 18.13 ± 6.76 µmol/L
BALB/c mice [3]; normal 35.24 ± 1.32, p 0.5021
  Albumin: 35.60 ± 1.01 g/L
BALB/c mice [3]; normal 58.21 ± 3.77, p 0.9711
  Total Protein: 58.16 ± 2.09 g/L
BALB/c mice [3]; normal 684.30 ± 288.39, p 0.8986
  Alanine Aminotransferase: 701.81 ± 316.56 nkat/L
BALB/c mice [4]
  body weight: Body weight increased steadily in all groups over the study period
  mortality and signs of toxicity: no mortality or signs of toxicity were observed
BALB/c mice [5]
  histopathology of major organs: no observable pathological changes in any of the examined organs
BALB/c mice [6]; vs control
  hematological parameters in words: no statistically significant differences (p > 0.05) between the treated and control groups in key hematological parameters
BALB/c mice [6]; normal 0.16 ± 0.27, p >0.9999
  Plateletcrit: 0.16 ± 0.26%
BALB/c mice [6]; normal 2.05 ± 3.45, p 0.9798
  Mean Platelet Volume: 2.09 ± 3.52 fL
BALB/c mice [6]; normal 2.91 ± 4.95, p 0.9364
  Platelet Distribution Width: 3.09 ± 5.00 fL
BALB/c mice [6]; normal 3.62 ± 6.29, p 0.9916
  Platelet Large Cell Ratio: 3.65 ± 6.26%
BALB/c mice [6]; normal 4.28 ± 1.72, p 0.3610
  White Blood Cells: 3.66 ± 1.19 ×10⁹/L
BALB/c mice [6]; normal 10.71 ± 0.83, p 0.2451
  Red Blood Cells: 11.13 ± 0.73 ×10^12/L
BALB/c mice [6]; normal 15.65 ± 0.32, p 0.7101
  Mean Corpuscular Hemoglobin: 15.70 ± 0.27 pg
BALB/c mice [6]; normal 26.58 ± 1.94, p 0.4260
  Red Cell Distribution Width—CV: 25.95 ± 1.49
BALB/c mice [6]; normal 32.81 ± 11.68, p 0.8517
  Red Cell Distribution Width—SD: 31.99 ± 7.11 fL
BALB/c mice [6]; normal 167.60 ± 13.10, p 0.1978
  Hemoglobin: 174.70 ± 10.50 g/L
BALB/c mice [6]; normal 341.80 ± 15.10, p 0.7101
  Mean Corpuscular Hemoglobin Concentration: 355.90 ± 5.50 g/L
BALB/c mice [6]; normal 675.50 ± 200.50, p 0.9198
  Platelet Count: 683.40 ± 140.00 ×10⁹/L

## C[C@H](NC(=O)CNC(=O)[C@@H]1C[C@@H](O)CN1)C(=O)N[C@@H](CCCNC(=N)N)C(=O)O [Hyp-GAR, Hydroxyproline-Gly-Ala-Arg] (H-[Hyp]GAR-OH)
[2]
  pIC50: 4.91

## C[C@H](CS)C(=O)N1CCC[C@H]1C(=O)O [captopril]
[7]
  eNOS levels in words: significantly restored both eNOS and NO levels
Angiotensin II
  AngII concentration: 220.16 ± 31.67 pg/mL
Nitric oxide (NO)
  NO levels in words: significantly restored both eNOS and NO levels
